{"source": "patent US20250241971A1", "about": "(priority 2022, published 2025)", "key": {"broiler chickens [1]": {"system": "broiler chickens", "conditions": "in vivo"}, "broiler chickens [2]": {"system": "broiler chickens", "conditions": "in vivo", "remark": "listed apart in the source"}, "il8 and ifnγ genes": {"system": "il8 and ifnγ genes", "conditions": "in vivo"}, "Poultry": {"system": "Poultry", "conditions": "in vivo; cited from earlier work"}, "Ruminants": {"system": "Ruminants", "conditions": "in feed; cited from earlier work"}}}
{"compound": "CC1=C[C@H]2O[C@@H]3[C@H](O)C[C@](C)([C@@]2(CO)[C@H](O)C1=O)[C@]31CO1", "note": "[DON, Deoxynivalenol]", "values": [{"measurement": "number of lesions on the tissue", "setting": "pig jejunum explants", "value": "increases the number of lesions on the tissue"}, {"measurement": "decrease in villus length", "setting": "pig jejunum explants; pig", "value": "approximately 35%"}, {"measurement": "lesions in the liver", "setting": "broiler chickens [1]", "value": "induces a strong increase in lesions in the liver"}, {"measurement": "macroscopic appearance of the liver", "setting": "broiler chickens [1]", "value": "appears paler, slightly yellower; a hemorrhagic lesion is clearly visible"}, {"measurement": "size (height) of intestinal villi of the jejunum", "setting": "broiler chickens [2]", "value": "induces a reduction in the size of the intestinal villi of the jejunum"}, {"measurement": "il8 mRNA expression in jejunum", "setting": "il8 and ifnγ genes", "value": "strong increase"}, {"measurement": "interferon gamma (ifnγ) mRNA expression in jejunum", "setting": "il8 and ifnγ genes", "value": "strong increase"}, {"measurement": "concentration from which first zootechnical effects are observed", "setting": "Poultry", "value": "≥ 5 mg of DON per kilogram of feed"}, {"measurement": "feed concentration up to which little sensitivity appears", "setting": "Ruminants", "value": "up to 12 mg/kg of feed"}]}
